Test system: 9-(2-aminopurine)-RNA II versus 9-(2-aminopurine)-RNA IV (T-box antiterminator model RNAs)
Assay: Fluorescence assay, relative fluorescence ratio (RNA binding selectivity) at 1 mM ligand
Settings: (F-Fo) RNA II / (F-Fo) RNA IV; <1.0 preferential binding for RNA IV, >1.0 for RNA II

For `NC(Cc1ccccc1)C(O)CO` (stereo not shown) [Amino Alcohol 2, 3-amino-4-phenyl-butane-1,2-diol], the “relative fluorescence ratio (rounded)” value was 0.4.
